Test results taken from patent US20240034743A9, “TRICYCLIC COMPOUNDS AS EGFR INHIBITORS” (QILU PHARMACEUTICAL CO., LTD., priority 2020, published 2024).
Where two headings read alike, the source gives them in different places. Marks after values point to notes of the source that are not given here.

Key:
EGFR WT (wild type EGFR) = EGFR WT (wild type EGFR) (Homo sapiens (Human), UniProt P00533); experiment: In vitro enzymatic TR-FRET (HTRF KinEASE-TK) kinase assay, EGFR WT; format: biochemical; conditions: kinase activity, TR-FRET; read-out: EGFR (WT) IC50
EGFR WT (wild type EGFR), sequence (P00533 25-1210): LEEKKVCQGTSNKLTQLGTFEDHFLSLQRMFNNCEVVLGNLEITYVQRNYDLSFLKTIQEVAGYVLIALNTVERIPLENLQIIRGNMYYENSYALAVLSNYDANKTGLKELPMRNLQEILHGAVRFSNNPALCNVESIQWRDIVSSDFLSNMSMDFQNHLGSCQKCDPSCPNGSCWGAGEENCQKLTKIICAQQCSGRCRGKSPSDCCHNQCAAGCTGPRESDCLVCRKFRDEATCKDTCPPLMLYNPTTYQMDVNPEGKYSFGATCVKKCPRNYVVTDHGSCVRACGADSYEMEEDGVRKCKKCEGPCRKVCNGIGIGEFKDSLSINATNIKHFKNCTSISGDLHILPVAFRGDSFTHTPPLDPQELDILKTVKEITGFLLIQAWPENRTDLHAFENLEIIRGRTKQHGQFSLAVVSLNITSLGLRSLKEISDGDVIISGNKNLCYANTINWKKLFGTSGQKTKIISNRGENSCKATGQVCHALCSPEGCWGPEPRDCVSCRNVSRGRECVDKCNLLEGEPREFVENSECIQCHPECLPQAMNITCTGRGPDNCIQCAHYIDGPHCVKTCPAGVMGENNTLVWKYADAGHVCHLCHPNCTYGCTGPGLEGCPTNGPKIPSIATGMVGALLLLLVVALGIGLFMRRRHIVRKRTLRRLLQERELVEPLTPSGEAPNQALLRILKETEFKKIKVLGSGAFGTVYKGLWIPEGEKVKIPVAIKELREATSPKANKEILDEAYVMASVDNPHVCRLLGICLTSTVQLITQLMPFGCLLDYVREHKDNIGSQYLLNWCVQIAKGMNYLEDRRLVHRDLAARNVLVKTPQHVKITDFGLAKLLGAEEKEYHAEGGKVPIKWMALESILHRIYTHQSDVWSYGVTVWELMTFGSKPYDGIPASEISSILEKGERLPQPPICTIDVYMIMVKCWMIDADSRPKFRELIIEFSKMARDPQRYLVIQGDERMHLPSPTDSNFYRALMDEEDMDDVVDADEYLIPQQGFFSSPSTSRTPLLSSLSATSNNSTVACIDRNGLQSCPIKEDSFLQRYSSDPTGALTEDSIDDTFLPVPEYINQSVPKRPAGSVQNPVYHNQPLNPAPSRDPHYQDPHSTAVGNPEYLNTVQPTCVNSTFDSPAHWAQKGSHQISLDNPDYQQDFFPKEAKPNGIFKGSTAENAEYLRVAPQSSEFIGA
Procedure, shortened: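 Recombinant enzyme preincubated with compound 10 min at room temperature in kinase buffer with 5 mM MgCl2, 1 mM MnCl2, 1 mM DTT. Biotinylated TK substrate plus ATP then added for 40 min. HTRF detection (Sa-XL665, Cryptate antibody) for 1 h; IC50 from 665/615 nm ratio.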

EGFR L858R/T790M/C797S = EGFR L858R/T790M/C797S (Homo sapiens (Human), UniProt P00533, C797S/L858R/T790M); experiment: In vitro enzymatic TR-FRET (HTRF KinEASE-TK) kinase assay, EGFR L858R/T790M/C797S; format: biochemical; conditions: kinase activity
EGFR L858R/T790M/C797S, sequence (P00533 25-1210 T790M/C797S/L858R): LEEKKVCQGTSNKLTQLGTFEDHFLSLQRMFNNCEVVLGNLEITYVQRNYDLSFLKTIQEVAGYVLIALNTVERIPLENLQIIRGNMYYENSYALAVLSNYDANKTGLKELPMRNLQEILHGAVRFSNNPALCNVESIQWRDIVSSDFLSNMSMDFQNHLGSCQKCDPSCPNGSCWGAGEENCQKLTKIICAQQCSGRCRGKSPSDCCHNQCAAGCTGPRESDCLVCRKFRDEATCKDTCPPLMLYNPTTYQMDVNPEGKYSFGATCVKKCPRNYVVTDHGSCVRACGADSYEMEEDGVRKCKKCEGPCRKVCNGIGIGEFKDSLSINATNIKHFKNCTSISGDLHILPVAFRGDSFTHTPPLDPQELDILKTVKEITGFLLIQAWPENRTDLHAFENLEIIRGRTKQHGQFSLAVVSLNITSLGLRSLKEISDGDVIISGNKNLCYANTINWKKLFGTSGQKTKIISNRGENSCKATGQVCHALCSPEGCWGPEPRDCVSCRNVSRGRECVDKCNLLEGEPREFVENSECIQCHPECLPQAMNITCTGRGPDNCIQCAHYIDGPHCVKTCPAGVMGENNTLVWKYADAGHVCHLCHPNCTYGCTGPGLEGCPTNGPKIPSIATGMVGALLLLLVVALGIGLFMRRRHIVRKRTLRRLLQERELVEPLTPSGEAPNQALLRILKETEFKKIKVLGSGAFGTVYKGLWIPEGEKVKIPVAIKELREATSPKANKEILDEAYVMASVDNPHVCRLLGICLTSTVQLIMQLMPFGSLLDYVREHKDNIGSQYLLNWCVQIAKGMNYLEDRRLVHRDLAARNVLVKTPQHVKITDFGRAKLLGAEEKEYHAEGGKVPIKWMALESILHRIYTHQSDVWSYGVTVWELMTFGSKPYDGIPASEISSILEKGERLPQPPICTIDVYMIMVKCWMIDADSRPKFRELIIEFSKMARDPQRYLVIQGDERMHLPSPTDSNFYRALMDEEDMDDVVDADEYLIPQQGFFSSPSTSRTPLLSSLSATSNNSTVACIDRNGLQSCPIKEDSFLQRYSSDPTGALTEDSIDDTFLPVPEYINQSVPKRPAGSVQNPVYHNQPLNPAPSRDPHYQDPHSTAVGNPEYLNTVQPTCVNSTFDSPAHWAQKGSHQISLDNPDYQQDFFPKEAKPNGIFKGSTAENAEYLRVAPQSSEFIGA
Description: (I) In Vitro Enzymatic Experiment for EGFR WT and EGFR L858R/T790M/C797S
In the assay, the inhibition effect of the compound on the kinase activity of EGFR WT (wild type EGFR) and EGFR L858R/T790M/C797S was tested by adopting a time-resolved fluorescence resonance energy transfer (TR-FRET) method, and half maximal inhibitory concentration IC50 of the compound on the kinase activity of EGFR was obtained.
EGFR recombinase and EGFR L858R/T790M/C797S recombinase, purchased from Signalchem.
HTRF KinEASE-TK kit, purchased from Cisbio.
DTT, MnCl2, and MgCl2, purchased from Sigma.
ATP, purchased from Promega.
Brigatinib, purchased from Selleck.
1) 1× working solution was prepared: 5 mM MgCl2; 1 mM DTT; 1 mM MnCl2 and 1× kinase buffer (in kit).
2) […] of gradiently-diluted compound was transferred to a 384-well plate using Echo 550 (Labcyte).
3) 5 μL of 2× EGFR WT or EGFR L858R/T790M/C797S recombinase solution was added to the 384-well plate, and the plate was incubated at room temperature for 10 min.
4) 5 μL of 2× TK-substrate-biotin substrate solution (containing ATP) was added to the 384-well plate, and the plate was incubated at room temperature for 40 min.
5) 5 μL of assay solution containing Sa-XL 665 HTRF and 5 μL of TK-antibody-Cryptatewas were added to the plate, and the plate was incubated at room temperature for 1 h.
6) The fluorescence signal values at 615 nm and 665 nm were measured for each well using an Envision microplate reader (PerkinElmer).
7) The ratio of fluorescence signal values at 665 nm and 615 nm was calculated for each well.
8) Data analysis was performed using GraphPad Prism software to give the IC50 for compounds.

A431 cells (EGFR WT) = experiment: A431 cell proliferation inhibition assay (CellTiter-Glo); format: cell-based; conditions: Homo sapiens
Procedure, shortened: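 Seeded cells grown 24 h, then exposed 72 h (37° C, 5% CO2) to graded compound dilutions at 0.1% DMSO final. Viability read by CellTiter-Glo luminescence after 30 min at room temperature; IC50 fitted from the dose curve.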

[1] = system: Ba/F3_Del19/T790M/C797S cells; experiment: Ba/F3_Del19/T790M/C797S cell proliferation inhibition assay (CellTiter-Glo); format: cell-based; conditions: Mus musculus
Procedure, shortened: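 Ba/F3 cells carrying EGFR Del19/T790M/C797S were seeded at 700 cells/well and exposed to serially diluted compound (0.1% DMSO final) for 72 h at 37° C. Viability was read by CellTiter-Glo luminescence to give IC50.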

[2] = system: Ba/F3_L858R/T790M/C797S cells; experiment: Ba/F3_L858R/T790M/C797S cell proliferation inhibition assay (CellTiter-Glo); format: cell-based; conditions: Mus musculus
Procedure, shortened: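 Ba/F3 cells engineered to carry EGFR L858R/T790M/C797S, seeded at 700 cells/well, exposed to serially diluted compound (0.1% DMSO final) for 72 h at 37 °C, 5% CO2. Viability read by CellTiter-Glo luminescence after 30 min at room temperature; IC50 from dose-response fit.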

[3] = system: PC9 (Del19/T790M/C797S) cells; experiment: In vivo efficacy study, PC9 (Del19/T790M/C797S) xenograft; set-up: species or system BALB/c-nu mice; conditions: 21 consecutive days; for Tumor volume (mm^3): mean ± SEM; for Tolerability in mice (in words): po
Description: (III) In Vivo Efficacy Study Experiment
The anti-tumor activity and toxic and side effects of compound 53 and compound 27 administered orally for 21 consecutive days on PC9 (Del19/T790M/C797S) were evaluated.
SPF-grade and female BALB/c-nu mice, purchased from Beijing Vital River Laboratory Animal Technology Co., Ltd.
PC9 (Del19/T790M/C797S) cells, self-constructed by Qilu Pharmaceutical Co., Ltd.
PC9 (Del19/T790M/C797S) cells were cultured in RPMI 1640 medium containing 10% FBS at 37° C. in a 5% carbon dioxide incubator; and the cells in exponential growth phase were collected for inoculation.
Under sterile conditions, a cell suspension of in vitro cultured PC9 (Del19/T790M/C797S) was taken, centrifuged to adjust the cell concentration to 3×10^7 cells/mL, and inoculated in mice at the right side armpit (0.1 mL/mouse), and the day of inoculation was defined as day 0.
3.3 Tumor Grouping, Administration and Measurement
a. When the mean tumor volume was about 150 mm^3, 35 mice with moderate tumor volume were selected for enrollment and randomized into 5 groups according to tumor volume: G1: vehicle control group, G2: compound 53 (15 mg/kg), G3: compound 53 (60 mg/kg), G4: compound 27 (15 mg/kg) and G5: compound 27 (35 mg/kg), 7 mice/group.
b. The animals were grouped and then started to be administrated, and the volume for oral administration (po) was 10 mL/kg; the weighing was performed once daily with consecutively 21-day administration; the tumor diameters were measured 2 times a week.
c. Tumor volume (TV): tumor volumes were measured 2 times a week to observe tumor mass volume changes and growth rate. Tumor volume V=1/2×a×b^2, where a and b represent tumor long diameter and short diameter, respectively. The growth inhibition effect of the compounds on tumor tissues is evaluated by using a tumor growth inhibition TGI (%). TGI (%)=[1−(average tumor volume of a certain administration group—average tumor volume at the day of grouping in the administration group)/(average tumor volume of negative control group—average tumor volume on the day of grouping in the negative control group)]×100%. The data of the administration group and the negative control group were obtained on the same day.
d. The mice's living status, including appearance signs, general behavioral activities, mental status, food consumption, respiratory status, fecal and urinary traits, injection site conditions and other toxic manifestations, was closely observed during the course of the experiment.
e. After the endpoint was reached, the mice were euthanized, and animal carcasses were frozen and stored in a freezer and transferred to qualified medical waste treatment organization for disposal.

[4] = A-431, cell proliferation, 72 h, CellTiter-Glo, read-out: A431 EGFR WT IC50
[5] = BaF3, cell proliferation, 72 h, CellTiter-Glo, read-out: Ba/F3 (Del19/T790M/C797S) IC50
[6] = BaF3, cell proliferation, 72 h, CellTiter-Glo, read-out: Ba/F3 (L858R/T790M/C797S) IC50
[7] = A-431, 72 h, read-out: A431 EGFR WT IC50(nM)
[8] = BaF3, 72 h, read-out: Ba/F3 (Del19/T790M/C797S) IC50(nM)
[9] = BaF3, 72 h, read-out: Ba/F3 (L858R/T790M/C797S) IC50(nM)

IC50 (A431 cells (EGFR WT); [4])	IC50 [1, 5]	IC50 [2, 6]	SMILES	IC50 (EGFR WT (wild type EGFR))	IC50 (EGFR L858R/T790M/C797S)	Body weight change (%) ([3]; 15 mg/kg po)	TGI (%) ([3]; 15 mg/kg po)	Tumor volume (mm^3) ([3]; 15 mg/kg po)	Body weight change (%) ([3]; 35 mg/kg po)	TGI (%) ([3]; 35 mg/kg po)	Tumor volume (mm^3) ([3]; 35 mg/kg po, P < 0.01 vs G1)	Tolerability in mice (in words) [3]	Body weight change (%) ([3]; 60 mg/kg po)	TGI (%) ([3]; 60 mg/kg po)	Tumor volume (mm^3) ([3]; 60 mg/kg po, P < 0.01 vs G1)	IC50 (A431 cells (EGFR WT); [7])	IC50 [1, 8]	IC50 [2, 9]
100 to 1000 nM	10 to 50 nM	10 to 50 nM	COc1cc2c(cc1Nc1ncc(Br)c(Nc3ccc4nccnc4c3N3CCCS3(=O)=O)n1)-c1cnn(C)c1CCN2C(C)C [Compound 118]	10 to 50 nM	1 to 10 nM	–	–	–	–	–	–	–	–	–	–	–	–	–
100 to 1000 nM	10 to 50 nM	10 to 50 nM	COc1cc2c(cc1Nc1ncc(Br)c(Nc3ccc4nccnc4c3NS(C)(=O)=O)n1)-c1cnn(C)c1CCN2C(C)(C)CF [Compound 120]	10 to 50 nM	1 to 10 nM	–	–	–	–	–	–	–	–	–	–	–	–	–
–	–	–	COc1cc2c(cc1Nc1ncc(Br)c(Nc3ccccc3NS(C)(=O)=O)n1)-c1cnn(C)c1CCN2 [Compound 121]	100 to 1000 nM	1 to 10 nM	–	–	–	–	–	–	–	–	–	–	100 to 1000 nM	< 10 nM	< 10 nM
–	–	–	COc1cc2c(cc1Nc1ncc(Br)c(Nc3ccccc3N(C(C)C)S(C)(=O)=O)n1)-c1cnn(C)c1CCN2 [Compound 122]	50 to 100 nM	1 to 10 nM	–	–	–	–	–	–	–	–	–	–	100 to 1000 nM	10 to 50 nM	10 to 50 nM
100 to 1000 nM	< 10 nM	10 to 50 nM	COc1cc2c(cc1Nc1ncc(Br)c(Nc3ccc4nccnc4c3NS(C)(=O)=O)n1)-c1cnn(C)c1CCN2CC(F)(F)F [Compound 125]	> 1000 nM	100 to 1000 nM	–	–	–	–	–	–	–	–	–	–	–	–	–
100 to 1000 nM	< 10 nM	< 10 nM	COc1cc2c(cc1Nc1ncc(Br)c(Nc3ccc4nccnc4c3NS(C)(=O)=O)n1)-c1cnn(C)c1CCN2C1CCOCC1 [Compound 130]	1 to 10 nM	< 1 nM	–	–	–	–	–	–	–	–	–	–	–	–	–
–	–	–	CCN(c1c(Nc2nc(Nc3cc4c(cc3OC)N(C(C)C)CCc3c-4cnn3C)ncc2Br)ccc2nccnc12)S(C)(=O)=O [Compound 134]	10 to 50 nM	1 to 10 nM	–	–	–	–	–	–	–	–	–	–	100 to 1000 nM	< 10 nM	10 to 50 nM
–	–	–	COc1cc2c(cc1Nc1ncc(Br)c(Nc3ccc4nccnc4c3NS(C)(=O)=O)n1)-c1cnn(C)c1CCN2C1CCC1 [Compound 135]	1 to 10 nM	1 to 10 nM	–	–	–	–	–	–	–	–	–	–	100 to 1000 nM	< 10 nM	< 10 nM

SMILES	IC50 (A431 cells (EGFR WT); [4])	IC50 [1, 5]	IC50 [2, 6]	IC50 (EGFR WT (wild type EGFR))	IC50 (EGFR L858R/T790M/C797S)	Body weight change (%) ([3]; 15 mg/kg po)	TGI (%) ([3]; 15 mg/kg po)	Tumor volume (mm^3) ([3]; 15 mg/kg po)	Body weight change (%) ([3]; 35 mg/kg po)	TGI (%) ([3]; 35 mg/kg po)	Tumor volume (mm^3) ([3]; 35 mg/kg po, P < 0.01 vs G1)	Tolerability in mice (in words) [3]	Body weight change (%) ([3]; 60 mg/kg po)	TGI (%) ([3]; 60 mg/kg po)	Tumor volume (mm^3) ([3]; 60 mg/kg po, P < 0.01 vs G1)	IC50 (A431 cells (EGFR WT); [7])	IC50 [1, 8]	IC50 [2, 9]
COc1cc2c(cc1Nc1ncc(Br)c(Nc3ccccc3P(C)(C)=O)n1)-c1cnn(C)c1CCN2C(C)C [Compound 27]	100 to 1000 nM	< 10 nM	< 10 nM	1 to 10 nM	< 1 nM	7.0%	50.6%	617.6 ± 110.7 mm^3	−1.7%	88.1%	253.0 ± 58.5** mm^3	well tolerated	–	–	–	–	–	–
COc1cc2c(cc1Nc1ncc(Br)c(Nc3ccc4nccnc4c3NS(C)(=O)=O)n1)-c1cnn(C)c1CCN2C(C)C [Compound 53]	100 to 1000 nM	< 10 nM	< 10 nM	< 1 nM	< 1 nM	0%	55.9%	565.8 ± 82.0 mm^3	–	–	–	well tolerated	6.8%	102.0%	117.0 ± 16.1** mm^3	–	–	–
